Laboratory results: article PMC7206119, “RIP1 inhibition blocks inflammatory diseases but not tumor growth or metastases” (Cell Death and Differentiation, 2019)

Legend:
Test in all cases: biochemical
Parameters in all cases: DiscoverX kinase panel, active-site competition binding (KINOMEscan type), percent of control at one concentration
Details in all cases: competition binding, percent of control
[1] = target: FLT4 (Homo sapiens, UniProt P35916)
[2] = target: FLT3 (Homo sapiens, UniProt P36888)
[3] = target: PAK6 (Homo sapiens, UniProt Q9NQU5)
[4] = target: NEK11 (Homo sapiens, UniProt Q8NG66)
Sequence of NEK11 (Q8NG66 whole entry): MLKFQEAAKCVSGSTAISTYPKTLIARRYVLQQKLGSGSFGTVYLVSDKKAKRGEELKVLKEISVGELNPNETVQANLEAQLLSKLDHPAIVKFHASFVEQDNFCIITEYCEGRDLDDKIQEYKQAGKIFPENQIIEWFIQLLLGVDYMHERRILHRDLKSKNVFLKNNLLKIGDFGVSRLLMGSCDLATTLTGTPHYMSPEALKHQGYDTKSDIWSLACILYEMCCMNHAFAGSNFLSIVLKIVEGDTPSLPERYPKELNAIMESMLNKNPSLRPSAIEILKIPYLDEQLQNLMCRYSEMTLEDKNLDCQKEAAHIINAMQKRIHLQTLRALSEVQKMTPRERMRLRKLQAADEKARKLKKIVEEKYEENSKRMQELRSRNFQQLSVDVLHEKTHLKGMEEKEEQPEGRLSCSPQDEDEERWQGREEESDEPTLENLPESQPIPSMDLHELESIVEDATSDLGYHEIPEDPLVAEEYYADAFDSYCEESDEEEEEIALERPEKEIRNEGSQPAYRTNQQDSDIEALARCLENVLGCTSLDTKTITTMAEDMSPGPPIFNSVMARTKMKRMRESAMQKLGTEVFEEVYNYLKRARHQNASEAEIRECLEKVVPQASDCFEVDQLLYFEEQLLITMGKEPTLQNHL

[5] = target: T1, TAK1 (Homo sapiens, UniProt O43318)
T1 construct: gene MAP3K7

[6] = target: SRPK1 (Homo sapiens, UniProt Q96SB4)
[7] = target: T2, NDR1 (Homo sapiens, UniProt Q15208)
T2 construct: gene STK38

[8] = target: T3, ABL1(E255K)-phosphorylated (Homo sapiens, UniProt P00519, E255K)
T3 construct: phosphorylated
T3 sequence (P00519 whole entry E255K): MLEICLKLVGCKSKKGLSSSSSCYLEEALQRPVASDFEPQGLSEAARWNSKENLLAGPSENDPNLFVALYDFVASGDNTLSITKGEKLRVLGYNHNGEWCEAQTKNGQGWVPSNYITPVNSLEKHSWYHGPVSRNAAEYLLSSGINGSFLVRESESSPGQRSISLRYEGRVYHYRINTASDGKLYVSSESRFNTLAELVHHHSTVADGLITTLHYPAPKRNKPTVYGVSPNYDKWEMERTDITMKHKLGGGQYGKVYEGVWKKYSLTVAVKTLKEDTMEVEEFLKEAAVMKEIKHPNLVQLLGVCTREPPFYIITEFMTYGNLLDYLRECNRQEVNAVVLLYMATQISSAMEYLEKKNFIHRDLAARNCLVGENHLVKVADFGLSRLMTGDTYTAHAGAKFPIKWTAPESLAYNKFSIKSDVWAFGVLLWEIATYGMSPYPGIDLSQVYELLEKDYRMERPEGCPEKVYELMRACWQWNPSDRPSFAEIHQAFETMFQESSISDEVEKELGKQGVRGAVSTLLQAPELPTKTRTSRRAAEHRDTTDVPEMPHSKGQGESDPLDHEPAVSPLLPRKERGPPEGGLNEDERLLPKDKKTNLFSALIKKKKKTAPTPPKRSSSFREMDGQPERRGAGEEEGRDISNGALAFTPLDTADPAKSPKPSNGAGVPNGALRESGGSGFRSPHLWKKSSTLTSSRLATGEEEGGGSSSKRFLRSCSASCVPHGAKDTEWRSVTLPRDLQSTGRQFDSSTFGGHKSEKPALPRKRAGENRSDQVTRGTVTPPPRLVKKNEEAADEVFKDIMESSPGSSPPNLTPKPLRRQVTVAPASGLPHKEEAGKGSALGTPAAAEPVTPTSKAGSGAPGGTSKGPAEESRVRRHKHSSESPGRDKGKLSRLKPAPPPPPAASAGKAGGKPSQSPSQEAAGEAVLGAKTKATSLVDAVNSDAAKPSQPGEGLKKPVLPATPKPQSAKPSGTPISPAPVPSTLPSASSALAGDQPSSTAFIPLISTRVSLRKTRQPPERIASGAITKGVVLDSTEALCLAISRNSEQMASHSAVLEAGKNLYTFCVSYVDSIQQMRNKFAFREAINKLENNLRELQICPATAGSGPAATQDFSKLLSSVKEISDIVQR

[9] = target: KIT-autoinhibited (Homo sapiens, UniProt P10721)
[10] = target: MTOR (Homo sapiens, UniProt P42345)
[11] = target: T4, YANK3 (Homo sapiens, UniProt Q86UX6)
T4 construct: gene STK32C
T4 sequence (Q86UX6 whole entry): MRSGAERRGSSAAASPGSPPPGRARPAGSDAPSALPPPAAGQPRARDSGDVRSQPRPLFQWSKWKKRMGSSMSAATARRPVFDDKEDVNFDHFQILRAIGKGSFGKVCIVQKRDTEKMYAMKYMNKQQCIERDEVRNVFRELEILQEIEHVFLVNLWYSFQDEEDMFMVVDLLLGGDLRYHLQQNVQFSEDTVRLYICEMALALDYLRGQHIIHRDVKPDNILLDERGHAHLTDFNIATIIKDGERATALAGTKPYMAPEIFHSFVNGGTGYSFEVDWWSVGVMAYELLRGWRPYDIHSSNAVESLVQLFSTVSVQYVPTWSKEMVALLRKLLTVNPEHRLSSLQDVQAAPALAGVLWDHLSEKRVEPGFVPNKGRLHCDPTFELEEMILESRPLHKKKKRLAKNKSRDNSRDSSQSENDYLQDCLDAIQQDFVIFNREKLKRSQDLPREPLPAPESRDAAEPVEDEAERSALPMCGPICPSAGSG

[12] = target: T5, DMPK2 (Homo sapiens, UniProt Q6DT37)
T5 construct: gene CDC42BPG

[13] = target: RAF1 (Homo sapiens, UniProt P04049)
[14] = target: ABL2 (Homo sapiens, UniProt P42684)
[15] = target: CSNK1G2 (Homo sapiens, UniProt P78368)
[16] = target: T6, MEK6 (Homo sapiens, UniProt P52564)
T6 construct: gene MAP2K6

[17] = target: T7, IKK-epsilon (Homo sapiens, UniProt Q14164)
T7 construct: gene IKBKE
T7 sequence (Q14164 whole entry): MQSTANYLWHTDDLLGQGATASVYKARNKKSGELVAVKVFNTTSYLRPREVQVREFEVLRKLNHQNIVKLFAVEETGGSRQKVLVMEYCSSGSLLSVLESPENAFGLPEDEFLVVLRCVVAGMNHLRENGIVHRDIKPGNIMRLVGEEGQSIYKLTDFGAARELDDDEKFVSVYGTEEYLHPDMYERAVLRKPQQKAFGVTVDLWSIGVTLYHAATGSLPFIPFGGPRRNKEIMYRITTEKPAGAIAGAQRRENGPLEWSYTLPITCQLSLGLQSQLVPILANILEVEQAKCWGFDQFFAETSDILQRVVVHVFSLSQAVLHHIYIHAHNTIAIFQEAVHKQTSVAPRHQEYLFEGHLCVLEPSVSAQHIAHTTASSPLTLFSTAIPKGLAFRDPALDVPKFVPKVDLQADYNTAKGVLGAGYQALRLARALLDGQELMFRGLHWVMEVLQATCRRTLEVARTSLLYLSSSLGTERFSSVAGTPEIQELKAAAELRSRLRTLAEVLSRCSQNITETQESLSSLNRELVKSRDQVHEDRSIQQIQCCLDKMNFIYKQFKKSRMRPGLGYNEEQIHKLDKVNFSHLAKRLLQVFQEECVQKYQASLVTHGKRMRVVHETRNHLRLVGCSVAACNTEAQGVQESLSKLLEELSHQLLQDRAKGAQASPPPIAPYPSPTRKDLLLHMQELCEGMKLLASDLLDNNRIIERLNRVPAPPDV

[18] = target: TESK1 (Homo sapiens, UniProt Q15569)
Sequence of TESK1 (Q15569 whole entry): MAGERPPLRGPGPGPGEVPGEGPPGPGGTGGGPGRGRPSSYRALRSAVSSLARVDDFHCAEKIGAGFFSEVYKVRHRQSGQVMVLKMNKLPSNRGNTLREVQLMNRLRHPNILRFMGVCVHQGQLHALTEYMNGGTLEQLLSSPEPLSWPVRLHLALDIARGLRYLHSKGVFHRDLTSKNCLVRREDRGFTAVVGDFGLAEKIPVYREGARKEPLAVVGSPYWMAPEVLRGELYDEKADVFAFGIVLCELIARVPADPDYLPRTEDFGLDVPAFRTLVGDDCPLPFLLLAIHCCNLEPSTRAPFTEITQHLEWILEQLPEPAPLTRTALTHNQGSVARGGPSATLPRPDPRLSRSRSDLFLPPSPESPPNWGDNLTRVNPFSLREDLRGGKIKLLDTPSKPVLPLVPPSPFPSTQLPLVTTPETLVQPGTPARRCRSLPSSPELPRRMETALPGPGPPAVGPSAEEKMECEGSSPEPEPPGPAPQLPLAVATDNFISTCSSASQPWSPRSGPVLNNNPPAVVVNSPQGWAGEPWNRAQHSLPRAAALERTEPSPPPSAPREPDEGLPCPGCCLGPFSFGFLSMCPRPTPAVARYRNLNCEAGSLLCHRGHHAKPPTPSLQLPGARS

[19] = target: EGFR(L861Q) (Homo sapiens, UniProt P00533, L861Q)
[20] = target: PIK3CA(I800L) (Homo sapiens, UniProt P42336, I800L)
[21] = target: MYO3A (Homo sapiens, UniProt Q8NEV4)

Sequence of FLT4 (P35916 whole entry): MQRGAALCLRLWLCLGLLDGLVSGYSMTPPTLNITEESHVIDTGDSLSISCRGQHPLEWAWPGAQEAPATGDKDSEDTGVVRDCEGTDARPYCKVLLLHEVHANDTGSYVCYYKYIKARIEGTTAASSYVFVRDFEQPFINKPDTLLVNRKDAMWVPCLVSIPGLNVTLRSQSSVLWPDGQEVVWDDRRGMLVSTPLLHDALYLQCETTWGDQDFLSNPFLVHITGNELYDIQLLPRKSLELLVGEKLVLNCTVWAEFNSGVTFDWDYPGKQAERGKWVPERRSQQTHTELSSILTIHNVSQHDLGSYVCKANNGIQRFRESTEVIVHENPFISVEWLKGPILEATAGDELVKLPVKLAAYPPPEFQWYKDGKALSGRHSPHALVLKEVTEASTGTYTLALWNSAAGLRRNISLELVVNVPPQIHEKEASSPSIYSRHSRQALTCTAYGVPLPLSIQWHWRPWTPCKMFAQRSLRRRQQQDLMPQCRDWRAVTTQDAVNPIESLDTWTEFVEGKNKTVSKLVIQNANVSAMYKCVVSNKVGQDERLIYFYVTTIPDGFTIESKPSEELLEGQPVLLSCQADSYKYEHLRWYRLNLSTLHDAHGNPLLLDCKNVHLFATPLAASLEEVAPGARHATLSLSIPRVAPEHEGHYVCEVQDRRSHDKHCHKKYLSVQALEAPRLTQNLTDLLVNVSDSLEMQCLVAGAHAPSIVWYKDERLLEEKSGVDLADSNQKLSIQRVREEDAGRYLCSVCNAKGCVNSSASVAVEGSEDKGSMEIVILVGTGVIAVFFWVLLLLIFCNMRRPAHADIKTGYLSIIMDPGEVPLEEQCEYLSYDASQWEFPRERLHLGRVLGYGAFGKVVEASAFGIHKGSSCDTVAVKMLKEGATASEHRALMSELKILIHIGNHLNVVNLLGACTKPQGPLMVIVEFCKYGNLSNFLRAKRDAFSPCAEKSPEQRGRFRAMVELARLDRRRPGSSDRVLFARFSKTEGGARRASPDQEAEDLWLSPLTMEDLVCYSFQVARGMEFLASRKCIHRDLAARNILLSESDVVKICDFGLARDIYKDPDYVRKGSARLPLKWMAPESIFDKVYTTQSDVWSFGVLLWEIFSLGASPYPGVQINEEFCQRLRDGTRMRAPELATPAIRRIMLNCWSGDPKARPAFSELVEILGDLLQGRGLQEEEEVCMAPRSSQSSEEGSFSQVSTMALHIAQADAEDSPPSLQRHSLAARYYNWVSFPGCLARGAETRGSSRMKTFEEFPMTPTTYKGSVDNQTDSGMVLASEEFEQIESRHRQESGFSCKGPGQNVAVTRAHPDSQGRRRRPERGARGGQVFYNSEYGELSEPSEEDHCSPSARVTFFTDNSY

**Q.** COc1cc2c(cn1)N(C)C(=O)[C@@H](NC(=O)c1nc3n(n1)[C@H](c1ccccc1)CC3)CC2 [GNE684, (S)-N-((S)-7-methoxy-1-methyl-2-oxo-2,3,4,5-tetrahydro-1H-pyrido[3,4-b]azepin-3-yl)-5-phenyl-6,7-dihydro-5H-pyrrolo[1,2-b][1,2,4]triazole-2-carboxamide] was tested. Which remaining binding at 10 µM [1] did it give?
**A.** The remaining binding at 10 µM was 96%.

**Q.** And the remaining binding at 10 µM [2]?
**A.** The remaining binding at 10 µM was 87%.

**Q.** And the remaining binding at 10 µM [3]?
**A.** Its remaining binding at 10 µM is 100%.

**Q.** What about the remaining binding at 10 µM [4] of the same molecule?
**A.** The remaining binding at 10 µM was 100%.

**Q.** And the remaining binding at 10 µM [5]?
**A.** The remaining binding at 10 µM was 100%.

**Q.** What about the remaining binding at 10 µM [6] of the same molecule?
**A.** The remaining binding at 10 µM was 93%.

**Q.** And the remaining binding at 10 µM [7]?
**A.** Its remaining binding at 10 µM is 79%.

**Q.** And the remaining binding at 10 µM [8]?
**A.** The remaining binding at 10 µM was 91%.

**Q.** What about the remaining binding at 10 µM [9] of the same molecule?
**A.** Its remaining binding at 10 µM is 93%.

**Q.** And the remaining binding at 10 µM [10]?
**A.** Its remaining binding at 10 µM is 100%.

**Q.** And the remaining binding at 10 µM [11]?
**A.** The remaining binding at 10 µM was 93%.

**Q.** What about the remaining binding at 10 µM [12] of the same molecule?
**A.** The remaining binding at 10 µM was 100%.

**Q.** What about the remaining binding at 10 µM [13] of the same molecule?
**A.** Its remaining binding at 10 µM is 77%.

**Q.** And the remaining binding at 10 µM [14]?
**A.** Its remaining binding at 10 µM is 100%.

**Q.** And the remaining binding at 10 µM [15]?
**A.** Its remaining binding at 10 µM is 90%.

**Q.** And the remaining binding at 10 µM [16]?
**A.** Its remaining binding at 10 µM is 100%.

**Q.** And the remaining binding at 10 µM [17]?
**A.** The remaining binding at 10 µM was 88%.

**Q.** And the remaining binding at 10 µM [18]?
**A.** Its remaining binding at 10 µM is 94%.

**Q.** And the remaining binding at 10 µM [19]?
**A.** Its remaining binding at 10 µM is 96%.

**Q.** What about the remaining binding at 10 µM [20] of the same molecule?
**A.** The remaining binding at 10 µM was 96%.

**Q.** And the remaining binding at 10 µM [21]?
**A.** The remaining binding at 10 µM was 95%.
